Experimental data as given in patent US8138168B1 (Takeda Pharmaceutical Company Limited, priority 2007, dated 2012).
Like-named read-outs stand apart in the source and are kept apart here.

Target: T1, Recombinant human renin (Homo sapiens, UniProt P00797)
T1 construct: isolate the active form (residues 67-406); made in house; host or cells: FreeStyle 293-F cells (transient expression of pcDNA3.1(+)/hREN)
T1 sequence (P00797 67-406): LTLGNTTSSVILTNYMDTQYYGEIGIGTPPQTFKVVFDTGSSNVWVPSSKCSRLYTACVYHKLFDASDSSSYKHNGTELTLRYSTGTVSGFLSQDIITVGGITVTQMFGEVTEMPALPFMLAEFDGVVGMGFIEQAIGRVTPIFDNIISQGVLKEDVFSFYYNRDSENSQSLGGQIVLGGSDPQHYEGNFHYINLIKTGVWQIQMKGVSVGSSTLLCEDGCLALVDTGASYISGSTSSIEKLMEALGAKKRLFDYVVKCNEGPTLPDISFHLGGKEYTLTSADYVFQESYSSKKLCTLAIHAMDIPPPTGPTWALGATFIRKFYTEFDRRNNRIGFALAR
Assay: In vitro enzymatic activity assay of renin inhibitors (fluorogenic peptide substrate)
Assay type: biochemical
How it was run: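 Enzyme: recombinant human renin, 3 nM final, 10 min compound pre-incubation at 37 °C; buffer 50 mM Hepes pH 7.4 with 0.1 mg/mL BSA or extra 2% BSA; 5% DMSO.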

[1] = read-out: IC50 of Exemplified Compounds Against Renin

SMILES | IC50 [1] [nM] | IC50 [nM]
COCCCn1c([C@@H]2CCCN(C(=O)C[C@H](N)Cc3ccc(-c4ccc5nonc5c4)cc3)C2)nc2ccccc21 [Compound 140, (R)-3-amino-4-(4-(benzo[c][1,2,5]oxadiazol-5-yl)phenyl)-1-((R)-3-(1-(3-metboxypropyl)-1H-benzo[d]imidazol-2-yl)piperidin-1-yl)butan-1-one] | < 100 | 
COCCCn1c([C@@H]2CCCN(C(=O)C[C@H](N)c3cccc(Cl)c3)C2)nc2ccccc21 [Compound 83, (S)-3-amino-3-(3-chlorophenyl)-1((R)-3-(1-(3-methoxypropyl)-1H-benzo[d]imidazol-2-yl)piperidin-1-yl)propan-1-one] | > 1000 | 
CNC(=O)CCn1c([C@@H]2CCCN(C(=O)C[C@H](N)Cc3ccc(-c4ccc5c(c4)CCO5)cc3)C2)nc2c(C)cccc21 [Compound 501, 3-(2-((R)-1-((R)-3-amino-4-(4-(2,3-dihydrobenzofuran-5-yl)phenyl)butanoyl)piperidin-3-yl)-4-methyl-1H-benzo[d]imidazol-1-yl)-N-methylpropanamide] | 100 to 1000 | 
COCCCn1c([C@@H]2CCCN(C(=O)C[C@H](N)Cc3ccc(-c4ccc(C(=O)NCCO)nc4)cc3)C2)nc2ccccc21 [Compound 194, 5-(4-((R)-2-Amino-4-((R)-3-(1-(3-methoxypropyl)-1H-benzo[d]imidazol-2-yl)piperidin-1-yl)-4-oxobutyl)phenyl)-N-(2-hydroxyethyl)picolinamide] | < 100 | 
COCCCn1c([C@@H]2CCCN(C(=O)C[C@H](N)c3cccc(C#N)c3)C2)nc2ccccc21 [Compound 85, 3-((S)-1-amino-3-((R)-3-(1-(3-methoxypropyl)-1H-benzo[d]imidazol-2-yl)piperidin-1-yl)-3-oxopropyl)benzonitrile] | > 1000 | 
COCCCn1c([C@@H]2CCCN(C(=O)[C@@H]3CN(S(=O)(=O)c4ccccc4)C[C@H]3N)C2)nc2ccccc21 [Compound 384, ((3R,4S)-4-amino-1-(phenylsulfonyl)pyrrolidin-3-yl)((R)-3-(1-(3-methoxypropyl)-1H-benzo[d]imidazol-2-yl)piperidin-1-yl)methanone] | > 1000 | 
COCCCn1c([C@@H]2CCCN(C(=O)C[C@H](N)CNC(=O)C(C)C)C2)nc2ccccc21 [Compound 333, N-((S)-2-amino-4-((R)-3-(1-(3-methoxypropyl)-1H-benzo[d]imidazol-2-yl)piperidin-1-yl)-4-oxobutyl)isobutyramide] | > 1000 | 
COCCCn1c([C@@H]2CCCN(C(=O)[C@@H]3CN(S(=O)(=O)c4ccccc4OC)C[C@H]3N)C2)nc2ccccc21 [Compound 379, ((3R,4S)-4-amino-1-(2-methoxyphenylsulfonyl)pyrrolidin-3-yl)((R)-3-(1-(3-methoxypropyl)-1H-benzo[d]imidazol-2-yl)piperidin-1-yl)methanone] | 100 to 1000 | 
COCCCn1c([C@@H]2CCCN(C(=O)C[C@H](N)Cc3ccc4ccccc4c3)C2)nc2ccc([N+](=O)[O-])cc21 [Compound 114, (R)-3-amino-1-((R)-3-(1-(3-methoxypropyl)-6-nitro-1H-benzo[d]imidazol-2-yl)piperidin-1-yl)-4-(naphthalen-2-yl)butan-1-one] | > 1000 | 
COCCCn1c([C@@H]2CCCN(C(=O)[C@@H]3CN(S(=O)(=O)c4cccc5c4ccn5C)C[C@H]3N)C2)nc2ccccc21 [Compound 392, ((3R,4S)-4-amino-1-(1-methyl-1H-indol-4-ylsulfonyl)pyrrolidin-3-yl)((R)-3-(1-(3-methoxypropyl)-1H-benzo[d]imidazol-2-yl)piperidin-1-yl)methanone] | > 1000 | 
COCCCn1c([C@@H]2CCCN(C(=O)[C@@H]3CN(S(=O)(=O)c4ccc(N5CCCC5=O)cc4)C[C@H]3N)C2)nc2ccccc21 [Compound 382, 1-(4-((3S,4R)-3-amino-4-((R)-3-(1-(3-methoxypropyl)-1H-benzo[d]imidazol-2-yl)piperidine-1-carbonyl)pyrrolidin-1-ylsulfonyl)phenyl)pyrrolidin-2-one] | 100 to 1000 | 
COCCCn1c([C@@H]2CCCN(C(=O)C[C@H](N)Cc3ccc(-c4ccc(C(=O)N5CCOCC5)cc4)cc3)C2)nc2ccccc21 [Compound 127, (R)-3-amino-1-((R)-3-(1-(3-methoxypropyl)-1H-benzo[d]imidazol-2-yl)piperidin-1-yl)-4-(4′-(morpholine-4-carbonyl)biphenyl-4-yl)butan-1-one] | < 100 | 
COCCCn1c([C@@H]2CCCN(C(=O)[C@@H]3CN(S(=O)(=O)c4cccc(OC)c4)C[C@H]3N)C2)nc2ccccc21 [Compound 357, ((3R,4S)-4-amino-1-(3-methoxyphenylsulfonyl)pyrrolidin-3-yl)((R)-3-(1-(3-methoxypropyl)-1H-benzo[d]imidazol-2-yl)piperidin-1-yl)methanone] | 100 to 1000 | 
COCCCn1c([C@@H]2CCCN(C(=O)C[C@H](N)Cc3ccc(-c4ccccc4)cc3)C2)nc2c(Cl)cccc21 [Compound 118, (R)-3-amino-4-(biphenyl-4-yl)-1-((R)-3-(4-chloro-1-(3-methoxypropyl)-1H-benzo[d]imidazol-2-yl)piperidin-1-yl)butan-1-one] | < 100 | 
O=C(NCc1ccco1)N1CCCC(c2nc3ccccc3[nH]2)C1 (stereo not drawn) [Compound 21, 3-(1H-benzo[d]imidazol-2-yl)-N-(furan-2-ylmethyl)piperidine-1-carboxamide] | > 1000 | 
COCCCn1c(C2CCCN(C(=O)C[C@H](N)Cc3ccc4ccccc4c3)C2)nc2ccc(CO)cc21 (stereo partly drawn) [Compound 113, (3R)-3-amino-1-(3-(6-(hydroxymethyl)-1-(3-methoxypropyl)-1H-benzo[d]imidazol-2-yl)piperidin-1-yl)-4-(naphthalen-2-yl)butan-1-one] | 100 to 1000 | 
COCCCn1c([C@@H]2CCCN(C(=O)C[C@H](N)CNC(=O)N3CCOCC3)C2)nc2ccccc21 [Compound 328, N-((S)-2-amino-4-((R)-3-(1-(3-methoxypropyl)-1H-benzo[d]imidazol-2-yl)piperidin-1-yl)-4-oxobutyl)morpholine-4-carboxamide] | > 1000 | 
N[C@@H](CC(=O)N1CCCC(c2nc3ccccc3[nH]2)C1)c1cccc([N+](=O)[O-])c1 (stereo partly drawn) [Compound 40, (3S)-1-(3-(1H-benzo[d]imidazol-2-yl)piperidin-1-yl)-3-amino-3-(3-nitrophenyl)propan-1-one] | > 1000 | 
COCCCn1c([C@@H]2CCCN(C(=O)[C@@H]3CN(S(=O)(=O)c4cccc(Cl)c4C)C[C@H]3N)C2)nc2ccccc21 [Compound 353, ((3R,4S)-4-amino-1-(3-chloro-2-methylphenylsulfonyl)pyrrolidin-3-yl)((R)-3-(1-(3-methoxypropyl)-1H-benzo[d]imidazol-2-yl)piperidin-1-yl)methanone] | 100 to 1000 | 
COCCCn1c([C@@H]2CCCN(C(=O)C[C@H](N)Cc3ccc(-c4ccc5c(c4)CCO5)cc3)C2)nc2c(F)cccc21 [Compound 490, (R)-3-amino-4-(4-(2,3-dihydrobenzofuran-5-yl)phenyl)-1-((R)-3-(4-fluoro-1-(3-methoxypropyl)-1H-benzo[d]imidazol-2-yl)piperidin-1-yl)butan-1-one] | < 100 | 
COCCCn1c([C@@H]2CCCN(C(=O)C[C@H](N)CNC(=O)Nc3ccccc3Cl)C2)nc2ccccc21 [Compound 257, 1-((S)-2-amino-4-((R)-3-(1-(3-methoxypropyl)-1H-benzo[d]imidazol-2-yl)piperidin-1-yl)-4-oxobutyl)-3-(2-chlorophenyl)urea] |  | < 100
